The source of these data is patent US12528786B2, “Plasma kallikrein inhibitors” (Merck Sharp & Dohme LLC, priority 2020, dated 2026).

Usually IC50 stands for the concentration that gives 50% inhibition. Low values mean greater potency in that assay, high ones weaker potency in that assay.

The target in this test is T1, Human plasma kallikrein (Homo sapiens, UniProt P03952).
T1 construct: yields a heavy chain (371 amino acids) and a light chain (248 amino acids); purchased Enzyme Research Laboratories
T1 sequence (P03952 391-638 limits assumed): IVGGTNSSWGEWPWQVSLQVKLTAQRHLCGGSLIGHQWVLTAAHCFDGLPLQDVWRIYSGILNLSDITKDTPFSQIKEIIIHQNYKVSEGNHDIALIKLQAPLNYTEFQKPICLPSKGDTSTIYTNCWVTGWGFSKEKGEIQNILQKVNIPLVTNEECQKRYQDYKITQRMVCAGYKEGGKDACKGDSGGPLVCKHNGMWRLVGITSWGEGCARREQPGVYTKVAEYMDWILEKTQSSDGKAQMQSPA
T1 sequence (P03952 20-390 partner limits assumed): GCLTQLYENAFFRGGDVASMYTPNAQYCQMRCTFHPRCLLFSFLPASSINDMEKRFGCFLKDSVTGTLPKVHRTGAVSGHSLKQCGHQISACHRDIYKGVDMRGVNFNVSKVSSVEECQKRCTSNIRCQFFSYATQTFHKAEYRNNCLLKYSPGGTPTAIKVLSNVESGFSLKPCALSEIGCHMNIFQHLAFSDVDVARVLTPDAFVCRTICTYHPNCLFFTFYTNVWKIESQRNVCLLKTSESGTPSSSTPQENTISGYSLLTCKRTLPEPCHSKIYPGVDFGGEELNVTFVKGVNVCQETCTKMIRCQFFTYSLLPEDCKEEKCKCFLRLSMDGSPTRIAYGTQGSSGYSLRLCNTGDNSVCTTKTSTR
Nature of the test: Kallikrein Assay (fluorogenic substrate hydrolysis, AFC release). The format is biochemical. The conditions noted are these: purified Human plasma kallikrein 0.5 nM; substrate Acetyl-K—P—R-AFC 100 mM; 50 mM HEPES pH 7.4. As to the method: The effectiveness of a compound of the present invention as an inhibitor of Kallikrein can be determined using a relevant purified serine protease, and an appropriate synthetic substrate. The rate of hydrolysis of the chromogenic or fluorogenic substrate by the relevant serine protease was measured both in the absence and presence of compounds of the present invention. Assays were conducted at room temperature or at 37° C. […] A decrease in the rate of fluorescence change in the presence of inhibitor is indicative of enzyme inhibition. Such methods are known to one skilled in the art. The results of this assay are expressed as the half-maximal inhibitory concentrations (IC50), or the inhibitory constant, Ki.
Kallikrein determinations were made in 50 mM HEPES buffer at pH 7.4 containing 150 mM NaCl, 5 mM CaCl2), and 0.1% PEG 8000 (polyethylene glycol; Fisher Scientific). Determinations were made using purified Human plasma kallikrein at a final concentration of 0.5 nM (Enzyme Research Laboratories) and the synthetic substrate, Acetyl-K—P—R-AFC (Sigma #C6608) at a concentration of […].
Activity assays were performed by diluting a stock solution of substrate at least tenfold to a final concentration ≤0.2 Km into a solution containing enzyme or enzyme equilibrated with inhibitor. Times required to achieve equilibration between enzyme and inhibitor were determined in control experiments. The reactions were performed under linear progress curve conditions and fluorescence increase measured at 405 Ex/510 Em nm. Values were converted to percent inhibition of the control reaction (after subtracting 100% Inhibition value). IC50 was determined by inflection point from a four parameter logistic curve fit. Ki was calculated using the Cheng Prusoff equation, Ki=IC50/(1+([S]/Km)).
`Cc1cc(N2C[C@H]3C[C@H]3C2=O)cnc1C(C)n1cc(C(=O)N[C@H]2C[C@@H](c3cc(Cl)ccc3C#N)C2)cn1` (single isomer, unassigned) [Example 24, N-((cis)-3-(5-chloro-2-cyanophenyl)cyclobutyl)-1-((R or S)-1-(3-methyl-5-((1R,5S)-2-oxo-3-azabicyclo[3.1.0]hexan-3-yl)pyridin-2-yl)ethyl)-1H-pyrazole-4-carboxamide] returned an IC50 of 5.1 nM. To `Cc1cc(N2C[C@H]3C[C@H]3C2=O)cnc1C(C)n1cc(C(=O)N[C@H]2C[C@@H](c3cc(Cl)ccc3C#N)C2)cn1` (single isomer, unassigned) [Example 25, N-((cis)-3-(5-chloro-2-cyanophenyl)cyclobutyl)-1-((S or R)-1-(3-methyl-5-((1R,5S)-2-oxo-3-azabicyclo[3.1.0]hexan-3-yl)pyridin-2-yl)ethyl)-1H-pyrazole-4-carboxamide] belongs 25.3 nM; to `CC(c1ncc(N2C[C@H]3C[C@H]3C2=O)cc1F)n1cc(C(=O)N[C@H]2C[C@@H](c3cc(Cl)ccc3C#N)C2)cn1` (single isomer, unassigned) [Example 26, N-((cis)-3-(5-chloro-2-cyanophenyl)cyclobutyl)-1-((R or S)-1-(3-fluoro-5-((1R,5S)-2-oxo-3-azabicyclo[3.1.0]hexan-3-yl)pyridin-2-yl)ethyl)-1H-pyrazole-4-carboxamide], 3.7 nM. To `CC(c1ncc(N2C[C@H]3C[C@H]3C2=O)cc1F)n1cc(C(=O)N[C@H]2C[C@@H](c3cc(Cl)ccc3C#N)C2)cn1` (single isomer, unassigned) [Example 27, N-((cis)-3-(5-chloro-2-cyanophenyl)cyclobutyl)-1-((S or R)-1-(3-fluoro-5-((1R,5S)-2-oxo-3-azabicyclo[3.1.0]hexan-3-yl)pyridin-2-yl)ethyl)-1H-pyrazole-4-carboxamide] belongs 18.6 nM; to `Cc1c(C(C)n2cc(C(=O)N[C@H]3C[C@@H](c4cc(Cl)ccc4C#N)C3)cn2)cnc(N2C[C@H]3C[C@H]3C2=O)c1F` (single isomer, unassigned) [Example 28, N-((cis)-3-(5-chloro-2-cyanophenyl)cyclobutyl)-1-((R or S)-1-(5-fluoro-4-methyl-6-((1R,5S)-2-oxo-3-azabicyclo[3.1.0]hexan-3-yl)pyridin-3-yl)ethyl)-1H-pyrazole-4-carboxamide], 0.2 nM. Consider `Cc1c(C(C)n2cc(C(=O)N[C@H]3C[C@@H](c4cc(Cl)ccc4C#N)C3)cn2)cnc(N2C[C@H]3C[C@H]3C2=O)c1F` (single isomer, unassigned) [Example 29, N-((cis)-3-(5-chloro-2-cyanophenyl)cyclobutyl)-1-((S or R)-1-(5-fluoro-4-methyl-6-((1R,5S)-2-oxo-3-azabicyclo[3.1.0]hexan-3-yl)pyridin-3-yl)ethyl)-1H-pyrazole-4-carboxamide], for which the IC50 turned out to be 1.6 nM.

The molecule `Cc1cc(C(C)n2cc(C(=O)N[C@H]3C[C@@H](c4cc(Cl)ccc4C#N)C3)cn2)nnc1N1C[C@H]2C[C@H]2C1=O` (single isomer, unassigned) [Example 30, N-((cis)-3-(5-chloro-2-cyanophenyl)cyclobutyl)-1-((R or S)-1-(5-methyl-6-((1R,5S)-2-oxo-3-azabicyclo[3.1.0]hexan-3-yl)pyridazin-3-yl)ethyl)-1H-pyrazole-4-carboxamide] gave an IC50 of 2.4 nM. Next, `Cc1cc(C(C)n2cc(C(=O)N[C@H]3C[C@@H](c4cc(Cl)ccc4C#N)C3)cn2)nnc1N1C[C@H]2C[C@H]2C1=O` (single isomer, unassigned) [Example 31, N-((cis)-3-(5-chloro-2-cyanophenyl)cyclobutyl)-1-((S or R)-1-(5-methyl-6-((1R,5S)-2-oxo-3-azabicyclo[3.1.0]hexan-3-yl)pyridazin-3-yl)ethyl)-1H-pyrazole-4-carboxamide]: 7.3 nM; `Cc1ccnc([C@H]2C[C@@H](NC(=O)c3cnn(C(C)c4cnc(N5C[C@H]6C[C@H]6C5=O)cc4C)c3)C2)c1` (single isomer, unassigned) [Example 32, 1-((R or S)-1-(4-methyl-6-((1R,5S)-2-oxo-3-azabicyclo[3.1.0]hexan-3-yl)pyridin-3-yl)ethyl)-N-((cis)-3-(4-methylpyridin-2-yl)cyclobutyl)-1H-pyrazole-4-carboxamide]: 11.1 nM; `Cc1ccnc([C@H]2C[C@@H](NC(=O)c3cnn(C(C)c4cnc(N5C[C@H]6C[C@H]6C5=O)cc4C)c3)C2)c1` (single isomer, unassigned) [Example 33, 1-((S or R)-1-(4-methyl-6-((1R,5S)-2-oxo-3-azabicyclo[3.1.0]hexan-3-yl)pyridin-3-yl)ethyl)-N-((cis)-3-(4-methylpyridin-2-yl)cyclobutyl)-1H-pyrazole-4-carboxamide]: 84.4 nM. Next, `Cc1cc(N2C[C@H]3C[C@H]3C2=O)ncc1C(C)n1cc(C(=O)N[C@H]2C[C@@H](c3cc(F)ccc3C#N)C2)cn1` (single isomer, unassigned) [Example 34, N-((cis)-3-(2-cyano-5-fluorophenyl)cyclobutyl)-1-((R or S)-1-(4-methyl-6-((1R,5S)-2-oxo-3-azabicyclo[3.1.0]hexan-3-yl)pyridin-3-yl)ethyl)-1H-pyrazole-4-carboxamide]: 5.1 nM. Molecule `Cc1cc(N2C[C@H]3C[C@H]3C2=O)ncc1C(C)n1cc(C(=O)N[C@H]2C[C@@H](c3cc(F)ccc3C#N)C2)cn1` (single isomer, unassigned) [Example 35, N-((cis)-3-(2-cyano-5-fluorophenyl)cyclobutyl)-1-((S or R)-1-(4-methyl-6-((1R,5S)-2-oxo-3-azabicyclo[3.1.0]hexan-3-yl)pyridin-3-yl)ethyl)-1H-pyrazole-4-carboxamide] had an IC50 of 102 nM. Regarding `Cc1ccc(C#N)c([C@H]2C[C@@H](NC(=O)c3cnn(C(C)c4cnc(N5C[C@H]6C[C@H]6C5=O)cc4C)c3)C2)c1` (single isomer, unassigned) [Example 36, N-((cis)-3-(2-cyano-5-methylphenyl)cyclobutyl)-1-((R or S)-1-(4-methyl-6-((1R,5S)-2-oxo-3-azabicyclo[3.1.0]hexan-3-yl)pyridin-3-yl)ethyl)-1H-pyrazole-4-carboxamide], half-maximal inhibition (IC50) was put at 1.1 nM.

In the case of `Cc1c(C(C)n2cc(C(=O)N[C@H]3C[C@@H](c4cc(Cl)ccc4C#N)C3)cn2)cnc(N2C[C@H]3C[C@H]3C2=O)c1C` (single isomer, unassigned) [Example 39, N-((cis)-3-(5-chloro-2-cyanophenyl)cyclobutyl)-1-((R or S)-1-(4,5-dimethyl-6-((1R,5S)-2-oxo-3-azabicyclo[3.1.0]hexan-3-yl)pyridin-3-yl)ethyl)-1H-pyrazole-4-carboxamide], the concentration for half-maximal inhibition (IC50) turned out to be 0.3 nM. Next, `Cc1c(C(C)n2cc(C(=O)N[C@H]3C[C@@H](c4cc(Cl)ccc4C#N)C3)cn2)cnc(N2C[C@H]3C[C@H]3C2=O)c1C` (single isomer, unassigned) [Example 40, N-((cis)-3-(5-chloro-2-cyanophenyl)cyclobutyl)-1-((S or R)-1-(4,5-dimethyl-6-((1R,5S)-2-oxo-3-azabicyclo[3.1.0]hexan-3-yl)pyridin-3-yl)ethyl)-1H-pyrazole-4-carboxamide]: 0.7 nM; `Cc1c(C(C)n2cc(C(=O)N[C@H]3C[C@@H](c4cc(Cl)ccc4C#N)C3)cn2)nnc(N2C[C@H]3C[C@H]3C2=O)c1C` (single isomer, unassigned) [Example 41, N-((cis)-3-(5-chloro-2-cyanophenyl)cyclobutyl)-1-((R or S)-1-(4,5-dimethyl-6-((1R,5S)-2-oxo-3-azabicyclo[3.1.0]hexan-3-yl)pyridazin-3-yl)ethyl)-1H-pyrazole-4-carboxamide]: 15.8 nM; `Cc1c(C(C)n2cc(C(=O)N[C@H]3C[C@@H](c4cc(Cl)ccc4C#N)C3)cn2)nnc(N2C[C@H]3C[C@H]3C2=O)c1C` (single isomer, unassigned) [Example 42, N-((cis)-3-(5-chloro-2-cyanophenyl)cyclobutyl)-1-((S or R)-1-(4,5-dimethyl-6-((1R,5S)-2-oxo-3-azabicyclo[3.1.0]hexan-3-yl)pyridazin-3-yl)ethyl)-1H-pyrazole-4-carboxamide]: 0.3 nM. To `COc1c(N2C[C@H]3C[C@H]3C2=O)ncc(C(C)n2cc(C(=O)N[C@H]3C[C@@H](c4cc(Cl)ccc4C#N)C3)cn2)c1C` (single isomer, unassigned) [Example 43, N-((cis)-3-(5-chloro-2-cyanophenyl)cyclobutyl)-1-((R or S)-1-(5-methoxy-4-methyl-6-((1R,5S)-2-oxo-3-azabicyclo[3.1.0]hexan-3-yl)pyridin-3-yl)ethyl)-1H-pyrazole-4-carboxamide] belongs 1.8 nM; to `COc1c(N2C[C@H]3C[C@H]3C2=O)ncc(C(C)n2cc(C(=O)N[C@H]3C[C@@H](c4cc(Cl)ccc4C#N)C3)cn2)c1C` (single isomer, unassigned) [Example 44, N-((cis)-3-(5-chloro-2-cyanophenyl)cyclobutyl)-1-((S or R)-1-(5-methoxy-4-methyl-6-((1R,5S)-2-oxo-3-azabicyclo[3.1.0]hexan-3-yl)pyridin-3-yl)ethyl)-1H-pyrazole-4-carboxamide], 0.2 nM.
